Measured values published in ChEMBL document CHEMBL5442219.

Tests used:
Conditions in all cases: Compound concentration 10 µM
[1] = molecular target: 5-hydroxytryptamine receptor 7 (Homo sapiens) (UniProt P34969)
Description: PDSP Primary Binding target: HTR7 - Compounds are tested at 10 uM concentration, plate are incubated at room temperature in the dark for 90 minutes. Reaction are stopped by vacuum filtration onto 0.3% polyethyleneimine soaked filter mats using Filtermate harvester. Scintilation cocktail is then melted onto microwave-dried filters on a hot plate and the radio activity is counted in Microbia counter.

[2] = molecular target: T1, 5-hydroxytryptamine receptor 2C (Homo sapiens) (UniProt P28335)
T1 sequence (whole entry): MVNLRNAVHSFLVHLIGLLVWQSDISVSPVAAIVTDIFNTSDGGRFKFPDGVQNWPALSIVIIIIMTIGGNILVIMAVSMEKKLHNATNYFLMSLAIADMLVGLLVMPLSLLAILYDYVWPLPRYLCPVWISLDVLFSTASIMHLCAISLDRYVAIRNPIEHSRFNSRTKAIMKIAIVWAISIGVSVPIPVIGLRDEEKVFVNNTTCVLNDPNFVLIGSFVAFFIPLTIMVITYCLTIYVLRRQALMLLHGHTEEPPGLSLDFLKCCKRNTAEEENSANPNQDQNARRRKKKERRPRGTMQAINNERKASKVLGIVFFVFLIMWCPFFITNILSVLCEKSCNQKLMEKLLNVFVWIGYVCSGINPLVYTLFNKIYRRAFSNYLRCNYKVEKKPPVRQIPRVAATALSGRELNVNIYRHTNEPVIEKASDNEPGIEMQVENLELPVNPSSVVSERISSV
Description: PDSP Primary Binding target: HTR2C - Compounds are tested at 10 uM concentration, plate are incubated at room temperature in the dark for 90 minutes. Reaction are stopped by vacuum filtration onto 0.3% polyethyleneimine soaked filter mats using Filtermate harvester. Scintilation cocktail is then melted onto microwave-dried filters on a hot plate and the radio activity is counted in Microbia counter.

[3] = molecular target: Delta-type opioid receptor (Homo sapiens) (UniProt P41143)
Description: PDSP Primary Binding target: OPRD1 - Compounds are tested at 10 uM concentration, plate are incubated at room temperature in the dark for 90 minutes. Reaction are stopped by vacuum filtration onto 0.3% polyethyleneimine soaked filter mats using Filtermate harvester. Scintilation cocktail is then melted onto microwave-dried filters on a hot plate and the radio activity is counted in Microbia counter.

[4] = molecular target: T2, 5-hydroxytryptamine receptor 3A (Homo sapiens) (UniProt P46098)
T2 sequence (whole entry): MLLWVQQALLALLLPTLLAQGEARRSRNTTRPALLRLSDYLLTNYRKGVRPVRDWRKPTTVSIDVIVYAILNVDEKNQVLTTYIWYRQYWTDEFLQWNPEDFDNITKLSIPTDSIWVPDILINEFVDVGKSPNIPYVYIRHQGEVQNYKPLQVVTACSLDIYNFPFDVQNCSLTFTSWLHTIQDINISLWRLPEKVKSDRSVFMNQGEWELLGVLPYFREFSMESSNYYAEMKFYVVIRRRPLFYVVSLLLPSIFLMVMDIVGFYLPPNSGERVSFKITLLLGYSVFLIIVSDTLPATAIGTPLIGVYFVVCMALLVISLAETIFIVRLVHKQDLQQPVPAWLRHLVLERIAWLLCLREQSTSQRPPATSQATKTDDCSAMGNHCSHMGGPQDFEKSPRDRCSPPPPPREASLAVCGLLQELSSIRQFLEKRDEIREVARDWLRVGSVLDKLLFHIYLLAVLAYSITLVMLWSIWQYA
Description: PDSP Primary Binding target: HTR3A - Compounds are tested at 10 uM concentration, plate are incubated at room temperature in the dark for 90 minutes. Reaction are stopped by vacuum filtration onto 0.3% polyethyleneimine soaked filter mats using Filtermate harvester. Scintilation cocktail is then melted onto microwave-dried filters on a hot plate and the radio activity is counted in Microbia counter.

[5] = molecular target: D(3) dopamine receptor (Homo sapiens) (UniProt P35462)
Description: PDSP Primary Binding target: DRD3 - Compounds are tested at 10 uM concentration, plate are incubated at room temperature in the dark for 90 minutes. Reaction are stopped by vacuum filtration onto 0.3% polyethyleneimine soaked filter mats using Filtermate harvester. Scintilation cocktail is then melted onto microwave-dried filters on a hot plate and the radio activity is counted in Microbia counter.

[6] = molecular target: 5-hydroxytryptamine receptor 2A (Homo sapiens) (UniProt P28223)
Description: PDSP Primary Binding target: HTR2A - Compounds are tested at 10 uM concentration, plate are incubated at room temperature in the dark for 90 minutes. Reaction are stopped by vacuum filtration onto 0.3% polyethyleneimine soaked filter mats using Filtermate harvester. Scintilation cocktail is then melted onto microwave-dried filters on a hot plate and the radio activity is counted in Microbia counter.

[7] = molecular target: T3, Muscarinic acetylcholine receptor M5 (Homo sapiens) (UniProt P08912)
T3 sequence (whole entry): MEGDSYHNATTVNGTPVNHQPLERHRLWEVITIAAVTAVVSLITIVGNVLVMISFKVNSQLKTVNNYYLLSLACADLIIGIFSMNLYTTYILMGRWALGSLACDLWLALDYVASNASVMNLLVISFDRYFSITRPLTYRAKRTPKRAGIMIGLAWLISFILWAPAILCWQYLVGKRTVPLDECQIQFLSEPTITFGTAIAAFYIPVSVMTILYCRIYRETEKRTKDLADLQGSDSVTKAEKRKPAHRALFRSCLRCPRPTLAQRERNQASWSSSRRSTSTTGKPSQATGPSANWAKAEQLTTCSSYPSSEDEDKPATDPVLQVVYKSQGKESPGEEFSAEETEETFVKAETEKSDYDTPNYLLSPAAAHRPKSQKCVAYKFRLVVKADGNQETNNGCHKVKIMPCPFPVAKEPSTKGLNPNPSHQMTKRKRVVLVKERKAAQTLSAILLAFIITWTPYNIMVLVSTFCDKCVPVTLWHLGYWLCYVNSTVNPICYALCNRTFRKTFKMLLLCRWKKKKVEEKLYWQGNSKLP
Description: PDSP Primary Binding target: CHRM5 - Compounds are tested at 10 uM concentration, plate are incubated at room temperature in the dark for 90 minutes. Reaction are stopped by vacuum filtration onto 0.3% polyethyleneimine soaked filter mats using Filtermate harvester. Scintilation cocktail is then melted onto microwave-dried filters on a hot plate and the radio activity is counted in Microbia counter.

[8] = molecular target: T4, Alpha-1B adrenergic receptor (Homo sapiens) (UniProt P35368)
T4 sequence (whole entry): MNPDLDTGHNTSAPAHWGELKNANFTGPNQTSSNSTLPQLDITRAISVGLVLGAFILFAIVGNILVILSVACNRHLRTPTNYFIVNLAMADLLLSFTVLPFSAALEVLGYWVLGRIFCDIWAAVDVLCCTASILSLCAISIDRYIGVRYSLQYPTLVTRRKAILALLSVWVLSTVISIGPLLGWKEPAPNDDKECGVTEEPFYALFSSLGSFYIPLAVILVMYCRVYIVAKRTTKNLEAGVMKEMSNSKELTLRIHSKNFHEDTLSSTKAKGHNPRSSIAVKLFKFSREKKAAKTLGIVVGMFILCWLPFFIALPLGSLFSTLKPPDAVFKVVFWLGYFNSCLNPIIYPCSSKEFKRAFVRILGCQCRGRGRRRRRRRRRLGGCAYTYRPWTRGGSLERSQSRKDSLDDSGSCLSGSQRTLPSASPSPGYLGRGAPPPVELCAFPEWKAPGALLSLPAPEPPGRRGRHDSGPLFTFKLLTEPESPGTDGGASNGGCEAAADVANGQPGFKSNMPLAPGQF
Description: PDSP Primary Binding target: ADRA1B - Compounds are tested at 10 uM concentration, plate are incubated at room temperature in the dark for 90 minutes. Reaction are stopped by vacuum filtration onto 0.3% polyethyleneimine soaked filter mats using Filtermate harvester. Scintilation cocktail is then melted onto microwave-dried filters on a hot plate and the radio activity is counted in Microbia counter.

[9] = molecular target: Sodium-dependent serotonin transporter (Homo sapiens) (UniProt P31645)
Description: PDSP Primary Binding target: SLC6A4 - Compounds are tested at 10 uM concentration, plate are incubated at room temperature in the dark for 90 minutes. Reaction are stopped by vacuum filtration onto 0.3% polyethyleneimine soaked filter mats using Filtermate harvester. Scintilation cocktail is then melted onto microwave-dried filters on a hot plate and the radio activity is counted in Microbia counter.

[10] = molecular target: Sodium-dependent noradrenaline transporter (Homo sapiens) (UniProt P23975)
Description: PDSP Primary Binding target: SLC6A2 - Compounds are tested at 10 uM concentration, plate are incubated at room temperature in the dark for 90 minutes. Reaction are stopped by vacuum filtration onto 0.3% polyethyleneimine soaked filter mats using Filtermate harvester. Scintilation cocktail is then melted onto microwave-dried filters on a hot plate and the radio activity is counted in Microbia counter.

[11] = molecular target: Muscarinic acetylcholine receptor M3 (Homo sapiens) (UniProt P20309)
Description: PDSP Primary Binding target: CHRM3 - Compounds are tested at 10 uM concentration, plate are incubated at room temperature in the dark for 90 minutes. Reaction are stopped by vacuum filtration onto 0.3% polyethyleneimine soaked filter mats using Filtermate harvester. Scintilation cocktail is then melted onto microwave-dried filters on a hot plate and the radio activity is counted in Microbia counter.

[12] = molecular target: Sigma non-opioid intracellular receptor 1 (Homo sapiens) (UniProt Q99720)
Description: PDSP Primary Binding target: SIGMAR1 - Compounds are tested at 10 uM concentration, plate are incubated at room temperature in the dark for 90 minutes. Reaction are stopped by vacuum filtration onto 0.3% polyethyleneimine soaked filter mats using Filtermate harvester. Scintilation cocktail is then melted onto microwave-dried filters on a hot plate and the radio activity is counted in Microbia counter.

[13] = molecular target: T5, Muscarinic acetylcholine receptor M2 (Homo sapiens) (UniProt P08172)
T5 sequence (whole entry): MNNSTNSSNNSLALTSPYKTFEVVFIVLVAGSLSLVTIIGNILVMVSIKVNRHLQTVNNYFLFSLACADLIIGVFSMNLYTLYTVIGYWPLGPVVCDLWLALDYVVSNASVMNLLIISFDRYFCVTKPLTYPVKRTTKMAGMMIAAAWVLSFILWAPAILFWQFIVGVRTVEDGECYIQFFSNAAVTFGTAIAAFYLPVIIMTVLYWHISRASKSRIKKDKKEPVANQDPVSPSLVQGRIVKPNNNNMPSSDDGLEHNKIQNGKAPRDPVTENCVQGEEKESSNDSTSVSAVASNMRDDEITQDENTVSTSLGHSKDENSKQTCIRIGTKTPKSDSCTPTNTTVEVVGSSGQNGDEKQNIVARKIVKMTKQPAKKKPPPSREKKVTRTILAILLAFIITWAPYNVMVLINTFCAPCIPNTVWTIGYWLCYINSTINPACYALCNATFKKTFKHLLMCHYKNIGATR
Description: PDSP Primary Binding target: CHRM2 - Compounds are tested at 10 uM concentration, plate are incubated at room temperature in the dark for 90 minutes. Reaction are stopped by vacuum filtration onto 0.3% polyethyleneimine soaked filter mats using Filtermate harvester. Scintilation cocktail is then melted onto microwave-dried filters on a hot plate and the radio activity is counted in Microbia counter.

Chain of D(3) dopamine receptor (Homo sapiens) (P35462 whole entry): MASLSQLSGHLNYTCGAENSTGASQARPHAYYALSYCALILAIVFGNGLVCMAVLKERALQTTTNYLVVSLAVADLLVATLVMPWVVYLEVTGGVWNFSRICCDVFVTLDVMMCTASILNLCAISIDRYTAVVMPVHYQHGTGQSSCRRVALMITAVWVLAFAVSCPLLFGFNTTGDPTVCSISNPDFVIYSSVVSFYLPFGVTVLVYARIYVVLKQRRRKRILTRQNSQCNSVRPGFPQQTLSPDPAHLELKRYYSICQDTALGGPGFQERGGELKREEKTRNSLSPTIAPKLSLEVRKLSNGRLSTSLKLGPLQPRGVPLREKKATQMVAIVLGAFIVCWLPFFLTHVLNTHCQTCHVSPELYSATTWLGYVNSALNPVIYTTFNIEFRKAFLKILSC
Chain of Sodium-dependent serotonin transporter (Homo sapiens) (P31645 whole entry, looked up): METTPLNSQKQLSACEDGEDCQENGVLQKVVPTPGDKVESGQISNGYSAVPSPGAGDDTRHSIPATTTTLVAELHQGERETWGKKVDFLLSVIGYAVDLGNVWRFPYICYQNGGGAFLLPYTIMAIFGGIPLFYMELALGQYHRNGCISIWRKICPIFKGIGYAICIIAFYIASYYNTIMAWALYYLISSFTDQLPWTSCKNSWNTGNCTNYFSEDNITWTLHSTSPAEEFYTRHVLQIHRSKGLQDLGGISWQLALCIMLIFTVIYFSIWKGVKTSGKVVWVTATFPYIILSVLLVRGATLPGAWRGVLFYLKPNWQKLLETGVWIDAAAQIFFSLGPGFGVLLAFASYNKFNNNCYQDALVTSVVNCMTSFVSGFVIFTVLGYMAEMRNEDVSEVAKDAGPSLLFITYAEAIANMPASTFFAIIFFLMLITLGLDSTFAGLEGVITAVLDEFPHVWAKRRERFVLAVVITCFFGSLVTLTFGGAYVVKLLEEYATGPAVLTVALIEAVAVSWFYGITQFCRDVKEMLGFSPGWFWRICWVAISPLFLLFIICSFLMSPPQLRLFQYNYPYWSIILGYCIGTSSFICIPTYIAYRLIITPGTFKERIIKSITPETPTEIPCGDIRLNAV
Chain of Muscarinic acetylcholine receptor M3 (Homo sapiens) (P20309 whole entry, looked up): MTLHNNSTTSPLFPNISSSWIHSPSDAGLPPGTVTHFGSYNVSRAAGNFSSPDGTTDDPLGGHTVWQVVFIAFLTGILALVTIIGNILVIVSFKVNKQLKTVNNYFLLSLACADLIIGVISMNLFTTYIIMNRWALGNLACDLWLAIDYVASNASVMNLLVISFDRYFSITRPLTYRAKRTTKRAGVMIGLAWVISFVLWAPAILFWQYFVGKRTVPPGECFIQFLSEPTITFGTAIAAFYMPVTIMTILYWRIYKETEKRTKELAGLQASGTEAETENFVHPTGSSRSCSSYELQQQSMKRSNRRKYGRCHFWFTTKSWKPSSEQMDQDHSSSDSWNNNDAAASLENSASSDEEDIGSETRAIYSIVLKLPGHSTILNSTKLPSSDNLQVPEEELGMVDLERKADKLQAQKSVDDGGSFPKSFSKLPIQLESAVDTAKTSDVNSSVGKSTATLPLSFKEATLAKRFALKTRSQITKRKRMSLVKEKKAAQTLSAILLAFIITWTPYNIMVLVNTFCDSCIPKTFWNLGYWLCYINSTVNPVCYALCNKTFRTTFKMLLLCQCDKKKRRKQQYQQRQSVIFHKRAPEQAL
Chain of Delta-type opioid receptor (Homo sapiens) (P41143 whole entry): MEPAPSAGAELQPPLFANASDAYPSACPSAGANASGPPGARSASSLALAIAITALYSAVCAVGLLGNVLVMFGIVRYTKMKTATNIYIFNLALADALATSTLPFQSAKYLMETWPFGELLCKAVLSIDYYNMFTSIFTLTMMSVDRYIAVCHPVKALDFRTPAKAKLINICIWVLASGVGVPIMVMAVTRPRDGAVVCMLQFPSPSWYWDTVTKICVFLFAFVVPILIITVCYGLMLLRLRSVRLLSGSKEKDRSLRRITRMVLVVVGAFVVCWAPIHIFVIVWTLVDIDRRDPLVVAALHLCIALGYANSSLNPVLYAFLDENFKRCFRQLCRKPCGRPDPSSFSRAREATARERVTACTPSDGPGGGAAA
Chain of Sigma non-opioid intracellular receptor 1 (Homo sapiens) (Q99720 whole entry): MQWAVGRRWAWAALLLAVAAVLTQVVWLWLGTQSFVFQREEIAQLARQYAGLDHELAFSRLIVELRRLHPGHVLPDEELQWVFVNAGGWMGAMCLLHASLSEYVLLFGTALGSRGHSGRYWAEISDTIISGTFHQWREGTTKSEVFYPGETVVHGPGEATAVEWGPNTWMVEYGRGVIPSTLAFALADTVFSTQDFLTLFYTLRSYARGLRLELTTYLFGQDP
Chain of 5-hydroxytryptamine receptor 7 (Homo sapiens) (P34969 whole entry): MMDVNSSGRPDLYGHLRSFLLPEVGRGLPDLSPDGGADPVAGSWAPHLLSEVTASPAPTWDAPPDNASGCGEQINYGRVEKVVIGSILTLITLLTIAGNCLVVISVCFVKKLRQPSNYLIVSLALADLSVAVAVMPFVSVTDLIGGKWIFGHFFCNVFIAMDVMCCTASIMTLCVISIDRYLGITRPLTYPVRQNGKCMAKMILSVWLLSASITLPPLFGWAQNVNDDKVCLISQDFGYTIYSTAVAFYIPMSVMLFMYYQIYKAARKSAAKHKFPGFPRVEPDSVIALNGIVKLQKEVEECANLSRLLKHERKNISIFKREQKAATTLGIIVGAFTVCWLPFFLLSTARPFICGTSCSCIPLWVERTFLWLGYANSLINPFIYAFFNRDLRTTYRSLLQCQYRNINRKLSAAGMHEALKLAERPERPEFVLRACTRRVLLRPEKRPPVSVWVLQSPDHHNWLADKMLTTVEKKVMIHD
Chain of 5-hydroxytryptamine receptor 2A (Homo sapiens) (P28223 whole entry): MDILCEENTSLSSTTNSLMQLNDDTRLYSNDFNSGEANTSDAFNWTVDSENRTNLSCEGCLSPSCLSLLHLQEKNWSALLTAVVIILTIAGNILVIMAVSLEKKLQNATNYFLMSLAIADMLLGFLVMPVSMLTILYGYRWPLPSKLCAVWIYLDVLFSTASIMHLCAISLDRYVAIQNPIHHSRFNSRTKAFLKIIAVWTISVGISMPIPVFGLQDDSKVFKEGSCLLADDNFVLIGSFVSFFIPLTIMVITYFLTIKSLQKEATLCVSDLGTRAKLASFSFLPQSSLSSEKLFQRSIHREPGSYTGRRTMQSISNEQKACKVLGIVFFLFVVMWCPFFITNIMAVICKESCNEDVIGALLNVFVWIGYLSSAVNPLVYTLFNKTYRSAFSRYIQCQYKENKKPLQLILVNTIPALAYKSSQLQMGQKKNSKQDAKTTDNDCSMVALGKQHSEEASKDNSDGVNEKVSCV
Chain of Sodium-dependent noradrenaline transporter (Homo sapiens) (P23975 whole entry): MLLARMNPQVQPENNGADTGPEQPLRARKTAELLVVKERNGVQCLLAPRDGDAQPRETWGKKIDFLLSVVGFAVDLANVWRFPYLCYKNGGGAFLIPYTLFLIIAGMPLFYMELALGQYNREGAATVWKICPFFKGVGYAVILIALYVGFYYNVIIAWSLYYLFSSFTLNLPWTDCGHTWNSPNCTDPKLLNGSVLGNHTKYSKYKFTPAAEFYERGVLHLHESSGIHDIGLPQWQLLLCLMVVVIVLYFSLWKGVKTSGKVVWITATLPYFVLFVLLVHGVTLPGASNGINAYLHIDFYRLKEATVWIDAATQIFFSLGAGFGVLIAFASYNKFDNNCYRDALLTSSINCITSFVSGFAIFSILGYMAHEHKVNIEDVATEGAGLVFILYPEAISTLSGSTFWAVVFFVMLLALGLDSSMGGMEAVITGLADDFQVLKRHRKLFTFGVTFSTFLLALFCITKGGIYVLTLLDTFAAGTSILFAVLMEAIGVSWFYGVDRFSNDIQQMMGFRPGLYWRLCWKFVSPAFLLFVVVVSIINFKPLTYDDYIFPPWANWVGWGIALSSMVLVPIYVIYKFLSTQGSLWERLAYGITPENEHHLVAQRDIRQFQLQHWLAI

Work on `CN1C(=O)[C@@H](NC(=O)c2cc3ccccc3[nH]2)N=C(c2ccccc2)c2ccccc21` yielded an inhibition [1] of 13.6%, an inhibition [2] of 16.1% and an inhibition [3] of 13%. The inhibition [4] was 2.09%, the inhibition [5] was 26.4% and the inhibition [6] was 19.7%. It also gave an inhibition [7] of -5.02%, an inhibition [8] of -6.37% and an inhibition [9] of -8.05%. For the same compound, the inhibition [10] was 28.5%.

`CNC[C@H](O)c1cccc(O)c1` gave an inhibition [1] of 75.5%, an inhibition [2] of 16.3% and an inhibition [3] of 13.8%. It also gave an inhibition [4] of 0.2%, an inhibition [5] of 12.7% and an inhibition [11] of -8.03%. It also gave an inhibition [6] of 25.3%, an inhibition [7] of -2.82% and an inhibition [8] of 10.8%. It also gave an inhibition [9] of 3.06% and an inhibition [10] of 8.86%.

In the case of `S=C(NCCCc1c[nH]cn1)NCCCN(Cc1ccc(Cl)c(Cl)c1)c1ccc(Br)cn1`, the inhibition [1] is reported as 74.9%, the inhibition [2] is reported as 100% and the inhibition [3] is reported as 27%. The inhibition [4] was 33.5%, the inhibition [5] was 62.3% and the inhibition [11] was 48.4%. For the same compound, the inhibition [12] was 1.54%, the inhibition [6] was 85.2% and the inhibition [7] was 87.6%. The inhibition [8] was 89.3%, the inhibition [9] was 95% and the inhibition [10] was 94.1%.

Work on `CC(C)(N)C(=O)N[C@H](COCc1ccccc1)C(=O)N1CCC2(CC1)CN(S(C)(=O)=O)c1ccccc12` yielded an inhibition [2] of -2.12%, an inhibition [3] of 3.11% and an inhibition [4] of 17.7%. It also gave an inhibition [5] of 25.7%, an inhibition [12] of 16.4% and an inhibition [13] of 1.1%. It also gave an inhibition [6] of 6.83%, an inhibition [7] of 5.22% and an inhibition [8] of 11.4%. The inhibition [9] was 23.6% and the inhibition [10] was -2.84%.

Compound `Nc1nc(NCCc2ccc(O)cc2)nc2nc(-c3ccco3)nn12` has an inhibition [1] of 13.5%, an inhibition [2] of 8.15% and an inhibition [3] of 2.38%. For the same compound, the inhibition [4] was 1.4%, the inhibition [5] was 19.9% and the inhibition [11] was -6.51%. For the same compound, the inhibition [12] was 43.4%, the inhibition [6] was 17.1% and the inhibition [8] was 2.08%. It also gave an inhibition [9] of -5.81% and an inhibition [10] of 44.1%.

For `Cc1csc2c(N[C@@H](C)CN3CCN(S(=O)(=O)c4ccc(Cl)c(Cl)c4)CC3)ncnc12`, the inhibition [3] was 4.01%, the inhibition [5] was 67.4% and the inhibition [11] was -6%. The inhibition [12] was 86%, the inhibition [13] was 1.88% and the inhibition [6] was 31%. It also gave an inhibition [7] of -7.08%, an inhibition [8] of 7.3% and an inhibition [9] of 44.9%. The inhibition [10] was -2.51%.

Compound `CCCCCNC(=O)NS(=O)(=O)c1cc([N+](=O)[O-])ccc1NC1CCCCC1` has an inhibition [2] of 11.4%, an inhibition [3] of 8.56% and an inhibition [4] of -7.62%. It also gave an inhibition [5] of 52.2%, an inhibition [11] of 16.6% and an inhibition [12] of 16%. For the same compound, the inhibition [13] was -9.24%, the inhibition [8] was 13.4% and the inhibition [9] was 85.4%. For the same compound, the inhibition [10] was 83.9%.

`COc1ccc(S(=O)(=O)N2c3ccc(Cl)cc3[C@](O)(c3ccccc3Cl)[C@@H]2C(=O)N2CCC[C@H]2C(N)=O)cc1OC` gave an inhibition [2] of 21.8%, an inhibition [3] of 19% and an inhibition [4] of -3.87%. The inhibition [5] was 40.4%, the inhibition [12] was 16.4% and the inhibition [13] was 29.5%. The inhibition [6] was -2.13%, the inhibition [7] was 7.17% and the inhibition [8] was 2.62%. It also gave an inhibition [9] of 46.5% and an inhibition [10] of 2.92%.

In the case of `CN1CC(=O)N=C1NC(=O)Nc1cccc(Cl)c1`, the inhibition [1] is reported as 0.17%, the inhibition [2] is reported as 5.25% and the inhibition [3] is reported as -3.44%. For the same compound, the inhibition [4] was -5.43%, the inhibition [5] was -3.16% and the inhibition [11] was 1.42%. For the same compound, the inhibition [12] was 3.26%, the inhibition [6] was 1.19% and the inhibition [7] was 6.05%. It also gave an inhibition [8] of -6.38%, an inhibition [9] of -8.91% and an inhibition [10] of 9.52%.

Work on `Cc1cccc([C@H](C)c2c[nH]cn2)c1C` yielded an inhibition [1] of 68.1%, an inhibition [2] of 14.5% and an inhibition [3] of -4.15%. The inhibition [4] was 13.3%, the inhibition [5] was 21.5% and the inhibition [12] was 1.54%. For the same compound, the inhibition [6] was 26.8%, the inhibition [7] was 3.92% and the inhibition [8] was 54.8%. The inhibition [9] was -4.26% and the inhibition [10] was 50.9%.

For `C[C@H](NC[C@H](O)CP(=O)(O)CC1CCCCC1)c1ccc(Cl)c(Cl)c1`, the inhibition [3] was -5.34%, the inhibition [4] was 6.3% and the inhibition [5] was 19.5%. For the same compound, the inhibition [11] was -3.76%, the inhibition [12] was 49.6% and the inhibition [13] was 40.4%. It also gave an inhibition [6] of -0.59%, an inhibition [7] of 16.6% and an inhibition [8] of 6.11%. The inhibition [9] was -2.56%.

With `COc1ccc(OC(F)(F)F)cc1CN[C@H]1CCCN[C@H]1c1ccccc1` the inhibition [2] was 58.5%, the inhibition [4] was 13.1% and the inhibition [5] was 36.3%. For the same compound, the inhibition [11] was -8.99%, the inhibition [12] was 59.9% and the inhibition [13] was 12.9%. It also gave an inhibition [6] of 64.8%, an inhibition [8] of 2.37% and an inhibition [9] of 38.8%. For the same compound, the inhibition [10] was 22.6%.

Compound `OC1(c2ccc(Cl)cc2)CCN(Cc2c[nH]c3ccccc23)CC1` has an inhibition [1] of 10.4%, an inhibition [2] of 18.8% and an inhibition [3] of 3.7%. It also gave an inhibition [4] of -7.87%, an inhibition [5] of 88.8% and an inhibition [11] of -9.56%. It also gave an inhibition [12] of 2.38%, an inhibition [6] of 66.9% and an inhibition [7] of 70.8%. The inhibition [8] was 37.1%, the inhibition [9] was 102% and the inhibition [10] was 63.5%.

`O=C(c1cc2c(cc1F)OC(c1ccc(F)cc1)(c1ccc(Cl)cc1Cl)O2)N1CCOCC1` (stereo not given) was tested, and the inhibition [1] was 5.01%, the inhibition [2] was 73.4% and the inhibition [3] was 24.5%. The inhibition [4] was 1.36%, the inhibition [5] was 27.4% and the inhibition [11] was -9.02%. For the same compound, the inhibition [12] was 48.5%, the inhibition [6] was 57.3% and the inhibition [7] was -6.56%. The inhibition [9] was 15.9% and the inhibition [10] was 52%.

Work on `N#Cc1cccc(C(=O)Nc2cc(-c3ccccc3)nn2-c2ccccc2)c1` yielded an inhibition [2] of 7.87%, an inhibition [5] of 30.4% and an inhibition [12] of 8.95%. For the same compound, the inhibition [13] was 20.9%, the inhibition [6] was 6.53% and the inhibition [7] was 2.45%. It also gave an inhibition [8] of -3.29% and an inhibition [9] of 6.36%.
